These results are taken from ChEMBL document CHEMBL2074539, “ATP-dependent transport of bilirubin glucuronides by the multidrug resistance protein MRP1 and its hepatocyte canalicular isoform MRP2” (Biochem J, 1997).

Structures are written as SMILES.

Data set [1] has as its target T1, Multidrug resistance-associated protein 1 (Homo sapiens, UniProt P33527). The data set is described as follows: TP_TRANSPORTER: uptake in membrane vesicle from MRP1-expressing HeLa cells. Type of data set: functional, cell membranes.
The target in data set [2] is T2, ATP-binding cassette sub-family C member 2 (Rattus norvegicus, UniProt Q63120). The experiment in a line: TP_TRANSPORTER: uptake in bile canalicular membranes from Wistar/TR- rat. Type of data set: functional, cell membranes, Bile canalicular membrane.
Data set [3] deals with ATP-binding cassette sub-family C member 2 (Homo sapiens, UniProt Q92887). The data set is described as follows: TP_TRANSPORTER: inhibition of LTC4 uptake (LTC4: 0.05 uM) in HepG2 cells. Type of data set: functional, cell-based.
Data set [4] addresses T2, ATP-binding cassette sub-family C member 2. The experiment in a line: TP_TRANSPORTER: inhibition of LTC4 uptake (LTC4: 0.05 uM) in bile canalicular membranes from Wistar rat. Type of data set: functional, cell membranes, Bile canalicular membrane.
Data set [5] addresses T1, Multidrug resistance-associated protein 1. The experiment in a line: TP_TRANSPORTER: inhibition of LTC4 uptake (LTC4: 0.05 uM) in membrane vesicle from MRP1-expressing HeLa cells. Type of data set: functional, cell membranes.

T1 sequence (P33527 whole entry): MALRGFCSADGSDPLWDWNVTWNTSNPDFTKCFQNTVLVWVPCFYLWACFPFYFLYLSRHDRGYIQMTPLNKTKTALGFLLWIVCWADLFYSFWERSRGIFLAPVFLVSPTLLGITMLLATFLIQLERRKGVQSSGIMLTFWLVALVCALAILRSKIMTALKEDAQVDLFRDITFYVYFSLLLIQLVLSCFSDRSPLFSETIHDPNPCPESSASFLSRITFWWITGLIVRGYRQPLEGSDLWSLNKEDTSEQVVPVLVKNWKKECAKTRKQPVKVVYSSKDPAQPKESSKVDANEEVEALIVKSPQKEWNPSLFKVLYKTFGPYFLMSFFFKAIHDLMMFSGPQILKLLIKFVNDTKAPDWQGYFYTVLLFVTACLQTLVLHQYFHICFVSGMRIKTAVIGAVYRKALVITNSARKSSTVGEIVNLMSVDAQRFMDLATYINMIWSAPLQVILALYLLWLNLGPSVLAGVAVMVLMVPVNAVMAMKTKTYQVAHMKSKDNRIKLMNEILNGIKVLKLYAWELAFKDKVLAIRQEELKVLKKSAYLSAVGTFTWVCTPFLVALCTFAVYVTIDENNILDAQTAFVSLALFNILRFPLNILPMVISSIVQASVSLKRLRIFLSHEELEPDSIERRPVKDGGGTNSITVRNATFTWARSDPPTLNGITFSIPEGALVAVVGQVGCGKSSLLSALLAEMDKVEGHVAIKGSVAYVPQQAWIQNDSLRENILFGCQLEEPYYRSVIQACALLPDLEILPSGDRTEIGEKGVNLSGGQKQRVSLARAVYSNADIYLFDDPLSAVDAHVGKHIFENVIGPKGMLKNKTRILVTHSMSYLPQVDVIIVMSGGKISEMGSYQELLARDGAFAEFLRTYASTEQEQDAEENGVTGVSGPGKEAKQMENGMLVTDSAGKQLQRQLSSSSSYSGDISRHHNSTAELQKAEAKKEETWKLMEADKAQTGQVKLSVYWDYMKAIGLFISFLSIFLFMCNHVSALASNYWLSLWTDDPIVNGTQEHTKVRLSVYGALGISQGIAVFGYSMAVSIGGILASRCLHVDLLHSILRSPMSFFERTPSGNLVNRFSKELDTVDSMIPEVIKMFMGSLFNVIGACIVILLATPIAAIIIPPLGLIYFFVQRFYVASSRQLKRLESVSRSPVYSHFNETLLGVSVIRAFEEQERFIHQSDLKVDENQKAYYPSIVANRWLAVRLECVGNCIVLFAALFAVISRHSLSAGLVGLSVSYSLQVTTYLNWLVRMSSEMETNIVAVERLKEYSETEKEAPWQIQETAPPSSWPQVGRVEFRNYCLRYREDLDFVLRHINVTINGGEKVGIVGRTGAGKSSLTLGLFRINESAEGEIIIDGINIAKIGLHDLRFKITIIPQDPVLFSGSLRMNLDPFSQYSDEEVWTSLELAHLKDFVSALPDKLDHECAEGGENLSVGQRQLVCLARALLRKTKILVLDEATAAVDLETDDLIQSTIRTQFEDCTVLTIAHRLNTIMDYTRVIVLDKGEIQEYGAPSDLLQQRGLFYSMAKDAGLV
T2 sequence (Q63120 whole entry): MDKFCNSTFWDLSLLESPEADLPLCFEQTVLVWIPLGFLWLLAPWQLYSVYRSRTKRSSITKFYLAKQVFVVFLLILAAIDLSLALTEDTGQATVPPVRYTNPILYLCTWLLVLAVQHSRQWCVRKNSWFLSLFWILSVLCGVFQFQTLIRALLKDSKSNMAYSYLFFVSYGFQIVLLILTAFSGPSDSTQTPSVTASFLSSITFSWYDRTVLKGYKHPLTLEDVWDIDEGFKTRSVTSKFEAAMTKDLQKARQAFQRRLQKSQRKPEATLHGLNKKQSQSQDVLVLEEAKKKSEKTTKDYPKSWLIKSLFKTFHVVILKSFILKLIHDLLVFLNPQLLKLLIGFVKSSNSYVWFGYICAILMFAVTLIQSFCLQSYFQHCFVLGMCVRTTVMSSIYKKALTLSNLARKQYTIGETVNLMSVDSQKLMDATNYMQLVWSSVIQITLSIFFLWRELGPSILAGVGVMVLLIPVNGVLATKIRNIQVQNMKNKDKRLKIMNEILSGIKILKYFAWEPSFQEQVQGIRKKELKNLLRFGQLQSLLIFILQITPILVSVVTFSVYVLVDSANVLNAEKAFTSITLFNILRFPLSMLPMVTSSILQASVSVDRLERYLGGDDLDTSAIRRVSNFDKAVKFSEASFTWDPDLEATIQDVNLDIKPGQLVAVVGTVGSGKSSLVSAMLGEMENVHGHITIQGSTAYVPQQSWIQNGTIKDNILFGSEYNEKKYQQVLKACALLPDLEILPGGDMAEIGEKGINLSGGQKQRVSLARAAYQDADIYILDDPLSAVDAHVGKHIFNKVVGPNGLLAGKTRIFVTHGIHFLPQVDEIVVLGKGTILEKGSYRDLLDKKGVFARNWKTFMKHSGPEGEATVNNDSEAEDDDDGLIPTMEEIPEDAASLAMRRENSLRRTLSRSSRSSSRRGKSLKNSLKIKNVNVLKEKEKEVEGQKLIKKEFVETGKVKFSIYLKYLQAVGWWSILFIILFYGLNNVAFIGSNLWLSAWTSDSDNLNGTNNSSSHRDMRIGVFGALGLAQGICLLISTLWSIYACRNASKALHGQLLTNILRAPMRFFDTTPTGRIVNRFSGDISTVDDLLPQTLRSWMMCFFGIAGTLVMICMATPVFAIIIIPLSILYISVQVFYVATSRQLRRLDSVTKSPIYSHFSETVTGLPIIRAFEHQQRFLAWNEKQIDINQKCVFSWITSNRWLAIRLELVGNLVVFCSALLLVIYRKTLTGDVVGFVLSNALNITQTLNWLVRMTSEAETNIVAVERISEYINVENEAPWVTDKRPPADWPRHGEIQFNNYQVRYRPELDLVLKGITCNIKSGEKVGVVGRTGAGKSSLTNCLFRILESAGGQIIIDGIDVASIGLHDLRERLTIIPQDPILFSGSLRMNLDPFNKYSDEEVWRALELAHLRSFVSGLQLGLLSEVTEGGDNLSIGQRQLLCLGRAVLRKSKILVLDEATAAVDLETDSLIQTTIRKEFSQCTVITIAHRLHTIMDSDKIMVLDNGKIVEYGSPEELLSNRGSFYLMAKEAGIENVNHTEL
Sequence of ATP-binding cassette sub-family C member 2 (Homo sapiens, UniProt Q92887) (Q92887 whole entry): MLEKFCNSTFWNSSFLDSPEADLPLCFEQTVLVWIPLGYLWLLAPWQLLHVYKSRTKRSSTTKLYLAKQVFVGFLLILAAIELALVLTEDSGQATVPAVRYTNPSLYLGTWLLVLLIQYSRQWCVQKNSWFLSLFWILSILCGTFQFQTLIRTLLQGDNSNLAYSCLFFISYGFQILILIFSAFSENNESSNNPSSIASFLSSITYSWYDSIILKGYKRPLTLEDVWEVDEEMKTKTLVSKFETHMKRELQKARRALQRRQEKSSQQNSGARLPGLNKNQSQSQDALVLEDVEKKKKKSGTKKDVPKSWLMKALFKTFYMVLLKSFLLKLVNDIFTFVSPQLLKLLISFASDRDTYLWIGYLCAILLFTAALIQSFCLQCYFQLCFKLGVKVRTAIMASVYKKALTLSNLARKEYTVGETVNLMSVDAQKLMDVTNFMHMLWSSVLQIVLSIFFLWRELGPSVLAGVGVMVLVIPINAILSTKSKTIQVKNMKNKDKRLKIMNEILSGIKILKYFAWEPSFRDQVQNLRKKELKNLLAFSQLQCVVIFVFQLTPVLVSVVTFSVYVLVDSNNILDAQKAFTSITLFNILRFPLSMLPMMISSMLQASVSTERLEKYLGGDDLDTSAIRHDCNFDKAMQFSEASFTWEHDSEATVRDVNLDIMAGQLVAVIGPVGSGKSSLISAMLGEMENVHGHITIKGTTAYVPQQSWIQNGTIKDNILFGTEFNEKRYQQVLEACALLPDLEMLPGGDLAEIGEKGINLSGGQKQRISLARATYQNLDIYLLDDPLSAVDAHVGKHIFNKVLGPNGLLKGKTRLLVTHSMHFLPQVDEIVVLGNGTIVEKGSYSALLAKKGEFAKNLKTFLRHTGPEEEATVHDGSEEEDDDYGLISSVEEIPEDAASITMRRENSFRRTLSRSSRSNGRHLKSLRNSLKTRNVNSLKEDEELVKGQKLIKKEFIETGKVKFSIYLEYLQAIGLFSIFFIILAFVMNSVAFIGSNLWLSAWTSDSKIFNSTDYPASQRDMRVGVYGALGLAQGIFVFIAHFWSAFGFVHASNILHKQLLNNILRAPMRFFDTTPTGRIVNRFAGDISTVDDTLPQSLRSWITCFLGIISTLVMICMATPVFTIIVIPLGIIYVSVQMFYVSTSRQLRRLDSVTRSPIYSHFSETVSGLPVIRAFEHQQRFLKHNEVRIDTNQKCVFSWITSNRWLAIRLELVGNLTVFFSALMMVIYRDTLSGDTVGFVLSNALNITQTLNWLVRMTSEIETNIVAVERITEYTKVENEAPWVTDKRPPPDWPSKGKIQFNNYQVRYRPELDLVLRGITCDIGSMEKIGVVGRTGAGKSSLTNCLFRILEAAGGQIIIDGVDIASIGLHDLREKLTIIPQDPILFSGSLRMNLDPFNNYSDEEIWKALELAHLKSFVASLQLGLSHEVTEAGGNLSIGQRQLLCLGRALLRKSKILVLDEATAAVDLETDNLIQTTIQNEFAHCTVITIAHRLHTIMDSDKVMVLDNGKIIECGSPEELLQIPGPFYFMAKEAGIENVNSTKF

Turning to `C=CC1=C(C)/C(=C/c2[nH]c(Cc3[nH]c(/C=C4\NC(=O)C(C)=C4C=C)c(C)c3CCC(=O)O[C@@H]3O[C@@H](C(=O)O)[C@H](O)[C@@H](O)[C@@H]3O)c(CCC(=O)O[C@@H]3O[C@H](C(=O)O)[C@H](O)[C@H](O)[C@@H]3O)c2C)NC1=O`, the Activity entry in data set [1] and in data set [2] was “substrate [+]” throughout. Also, the concentration for half-maximal inhibition (IC50) in data set [3] is 400 nM; in data set [4] it was 100 nM; in data set [5], 750 nM.
Take `C=CC1=C(C)/C(=C/c2[nH]c(Cc3[nH]c(/C=C4\NC(=O)C(C)=C4C=C)c(C)c3CCC(=O)O[C@@H]3OC(C(=O)O)[C@@H](O)C(O)C3O)c(CCC(=O)O)c2C)NC1=O` (stereo not given in full) [BILIRUBIN MONOGLUCURONIDE]: the Activity entry in data set [1] and in data set [2] was “substrate [+]” throughout. The results for the half-inhibitory concentration (IC50) in data set [3], in data set [4] and in data set [5] were 280 nM, 120 nM and 420 nM, respectively.

What is called IC50 is the concentration that gives 50% inhibition. Lower therefore signals greater potency in that assay.
